From patent US12139492B2 (Endotarget Inc., priority 2021, dated 2024)

How the values were obtained:
Mino cells = assay: Antiproliferative effect, MTS cell viability assay, Mino cells; type: cell-based; details: Homo sapiens, MINO, Mino mantle cell lymphoma cells; read-out: IC50 (anti-proliferation) Mino cells
How it was run: (§1)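 Cells were exposed to compound at 0, 0.001, 0.01, 0.1, 1 and 10 μM for 72 h. Viability was then measured by MTS assay, reading formazan produced by metabolically active cells as absorbance at 490 nm.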

JeKo-1 cells = assay: Antiproliferative effect, MTS cell viability assay, JeKo-1 cells; type: cell-based; details: Homo sapiens; JeKo-1 mantle cell lymphoma cells; read-out: IC50 (anti-proliferation) JeKO-1 cells
How it was run: as §1

BTK = BTK (Homo sapiens, UniProt Q06187); assay: Degradation of BTK protein in Namalwa cells (Western blot; DC50, Dmax); details: for DC50: BTK degradation, cell line not given
Chain of BTK (Q06187 whole entry): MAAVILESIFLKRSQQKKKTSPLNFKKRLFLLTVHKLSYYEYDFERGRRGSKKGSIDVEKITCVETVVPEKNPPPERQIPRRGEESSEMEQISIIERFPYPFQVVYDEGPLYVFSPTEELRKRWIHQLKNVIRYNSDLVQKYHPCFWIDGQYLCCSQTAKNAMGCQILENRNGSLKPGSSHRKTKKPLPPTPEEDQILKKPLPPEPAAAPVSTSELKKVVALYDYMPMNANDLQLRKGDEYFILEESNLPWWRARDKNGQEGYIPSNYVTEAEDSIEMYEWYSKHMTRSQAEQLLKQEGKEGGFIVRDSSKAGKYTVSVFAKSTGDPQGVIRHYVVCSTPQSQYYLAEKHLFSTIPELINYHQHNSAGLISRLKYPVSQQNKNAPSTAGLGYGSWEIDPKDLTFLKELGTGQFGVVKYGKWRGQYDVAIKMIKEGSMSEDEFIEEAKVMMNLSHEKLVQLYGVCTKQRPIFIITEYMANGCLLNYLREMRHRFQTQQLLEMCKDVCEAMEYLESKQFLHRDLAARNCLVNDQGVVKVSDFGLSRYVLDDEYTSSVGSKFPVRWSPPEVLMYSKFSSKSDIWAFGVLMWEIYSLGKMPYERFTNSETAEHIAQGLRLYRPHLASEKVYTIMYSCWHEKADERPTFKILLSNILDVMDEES

Compound	IC50 (Mino cells) [nM]	IC50 (JeKo-1 cells) [nM]	Dmax (BTK) [%]	DC50 (BTK) [nM]
Nc1ncnc2c1c(-c1ccc(Oc3ccccc3)cc1)nn2C1CCN(C2CCN(C(=O)N3CCC(CN4CCN(c5ccc6c(c5)C(=O)N(C5CCC(=O)NC5=O)C6=O)CC4)CC3)CC2)CC1 (stereo not shown) [Compound 239, 5-(4-((1-(4-(4-amino-3-(4-phenoxyphenyl)-1H-pyrazolo[3,4-d]pyrimidin-1-yl)-[1,4′-bipiperidine]-1′-carbonyl)piperidin-4-yl)methyl)piperazin-1-yl)-2-(2,6-dioxopiperidin-3-yl)isoindoline-1,3-dione]	1000 to 10000	< 1000	> 90	10 to 50
Nc1ncnc2c1c(-c1ccc(Oc3ccccc3)cc1)nn2C1CCN(C2CCN(C(=O)N3CCC(CN4CCN(c5ccc6c(c5)CN(C5CCC(=O)NC5=O)C6=O)CC4)CC3)CC2)CC1 (stereo not shown) [Compound 240, 3-(5-(4-((1-(4-(4-amino-3-(4-phenoxyphenyl)-1H-pyrazolo[3,4-d]pyrimidin-1-yl)-[1,4′-bipiperidine]-1′-carbonyl)piperidin-4-yl)methyl)piperazin-1-yl)-1-oxoisoindolin-2-yl)piperidine-2,6-dione]	1000 to 10000	< 1000	> 90	< 10
Nc1ncnc2c1c(-c1ccc(Oc3ccccc3)cc1)nn2C1CCN(C2CCN(C(=O)N3CCN(CC4CCN(c5ccc6c(c5)C(=O)N(C5CCC(=O)NC5=O)C6=O)CC4)CC3)CC2)CC1 (stereo not shown) [Compound 241, 5-(4-((4-(4-(4-amino-3-(4-phenoxyphenyl)-1H-pyrazolo[3,4-d]pyrimidin-1-yl)-[1,4′-bipiperidine]-1′-carbonyl)piperazin-1-yl)methyl)piperidin-1-yl)-2-(2,6-dioxopiperidin-3-yl)isoindoline-1,3-dione]	1000 to 10000	1000 to 10000	> 90	10 to 50
Nc1ncnc2c1c(-c1ccc(Oc3ccccc3)cc1)nn2C1CCN(C2CCN(C(=O)N3CCN(CC4CCN(c5ccc6c(c5)CN(C5CCC(=O)NC5=O)C6=O)CC4)CC3)CC2)CC1 (stereo not shown) [Compound 242, 3-(5-(4-((4-(4-(4-amino-3-(4-phenoxyphenyl)-1H-pyrazolo[3,4-d]pyrimidin-1-yl)-[1,4′-bipiperidine]-1′-carbonyl)piperazin-1-yl)methyl)piperidin-1-yl)-1-oxoisoindolin-2-yl)piperidine-2,6-dione]	< 1000	1000 to 10000	> 90	< 10
Nc1ncnc2c1c(-c1ccc(Oc3ccccc3)cc1)nn2C1CCN(C2CCN(C(=O)N3CCC(CN4CCC(c5ccc6c(c5)C(=O)N(C5CCC(=O)NC5=O)C6=O)CC4)CC3)CC2)CC1 (stereo not shown) [Compound 243, 5-(1-((1-(4-(4-amino-3-(4-phenoxyphenyl)-1H-pyrazolo[3,4-d]pyrimidin-1-yl)-[1,4′-bipiperidine]-1′-carbonyl)piperidin-4-yl)methyl)piperidin-4-yl)-2-(2,6-dioxopiperidin-3-yl)isoindoline-1,3-dione]	1000 to 10000	1000 to 10000	> 90	< 10
Nc1ncnc2c1c(-c1ccc(Oc3ccccc3)cc1)nn2C1CCN(C2CCN(C(=O)N3CCC(CN4CCC(c5ccc6c(c5)CN(C5CCC(=O)NC5=O)C6=O)CC4)CC3)CC2)CC1 (stereo not shown) [Compound 244, 3-(5-(1-((1-(4-(4-amino-3-(4-phenoxyphenyl)-1H-pyrazolo[3,4-d]pyrimidin-1-yl)-[1,4′-bipiperidine]-1′-carbonyl)piperidin-4-yl)methyl)piperidin-4-yl)-1-oxoisoindolin-2-yl)piperidine-2,6-dione]	1000 to 10000	1000 to 10000	> 90	< 10
Nc1ncnc2c1c(-c1ccc(Oc3ccccc3)cc1)nn2C1CCN(C2CCN(C(=O)N3CCN(CCN4CCN(c5ccc6c(c5)C(=O)N(C5CCC(=O)NC5=O)C6=O)CC4)CC3)CC2)CC1 (stereo not shown) [Compound 245]	1000 to 10000	1000 to 10000	> 75	10 to 50
